Assay results as given in patent publication US10473666B2, “Dye compounds” (SFC CO., LTD., priority 2015, dated 2019).

What was measured:
[1] = Absorption spectra, emission spectra, molar extinction coefficients and quantum yields of the dye compounds; type: physicochemical; settings: Table 1; solvent DMSO
Method: Absorption spectra (λabs), emission spectra (λem), molar extinction coefficients (ε), and quantum yields of the compounds of Formulae 1-7 were measured and the results are shown in Table 1.
Absorption spectra (λabs), emission spectra (λem), molar extinction coefficients, and quantum yields of the compounds of Formulae 44-53 were measured and the results are shown in Table 4.
The products of the two factors (molar extinction coefficient×fluorescence quantum yield) for the inventive dye compounds were much greater than that for the comparative compound.

[2] = as above; type: physicochemical
[3] = test system: goat anti-mouse IgG; test: Absorption and fluorescence emission spectra of goat anti-mouse IgG labeled with the dye
Method: Goat anti-mouse IgG was labeled with Alexa Fluor® 568 (Thermo Fisher Scientific) and the compound of Formula 1 and their absorption spectra and fluorescence emission spectra were recorded.
FIG. 1a is an absorption spectrum of goat anti-mouse IgG labeled with the compound of Formula 1, FIG. 1b is an absorption spectrum of goat anti-mouse IgG labeled with Alexa Fluor® 568, FIG. 1c is a fluorescence emission spectrum of goat anti-mouse IgG labeled with the compound of Formula 1, and FIG. 1d is a fluorescence emission spectrum of goat anti-mouse IgG labeled with Alexa Fluor® 568.
Goat anti-mouse IgG was labeled with Alexa Fluor® 594 (Thermo Fisher Scientific) and the compound of Formula 3 and their absorption spectra and fluorescence emission spectra were recorded.
FIG. 2a is an absorption spectrum of goat anti-mouse IgG labeled with the compound of Formula 3, FIG. 2b is an absorption spectrum of goat anti-mouse IgG labeled with Alexa Fluor® 594, FIG. 2c is a fluorescence emission spectrum of goat anti-mouse IgG labeled with the compound of Formula 3, and FIG. 2d is a fluorescence emission spectrum of goat anti-mouse IgG labeled with Alexa Fluor® 594.

[4] = test system: IgG from mouse serum (primary); test: FLISA plate fluorescence (bioactivity) of dye-conjugated secondary antibody on coated primary IgG; type: binding; settings: for D/P ratio at which the dye-secondary antibody was conjugated to the primary antibody with the highest efficiency: dye-conjugated goat anti-mouse IgG on IgG from mouse serum; for Fluorescence: dye-conjugated goat anti-mouse IgG
Method: 1. IgG from mouse serum (primary) was dissolved to a concentration of 10 μg/ml in coating buffer.
2. 100 μl of the solution was divided into each well of a FLISA H/B black corning plate.
3. After top sealing, the plate was incubated in the dark at room temperature for 2 h.
4. Each well was washed three times with 300 μl of washing buffer.
5. 300 μl of blocking buffer was placed into each well. After top sealing, the plate was incubated in the dark at room temperature for 1 h.
6. After removal of the blocking buffer, the wells were washed three times with washing buffer.
7. 100 μl of a dye-conjugated secondary antibody (10 μg/ml) was placed into each well. After top sealing, the plate was incubated in the dark at room temperature for 1 h.
8. After removal of the solution, each well was washed three times with 200 μl of washing buffer.
9. 100 μl of PBS was placed into each sample-containing well.
10. Fluorescence was measured with a microplate reader.
The procedure of Experimental Example 4 was repeated except that the compound of Formula 3 was used.
The procedure of Experimental Example 4 was repeated except that the compound of Formula 50 was used.

[5] = Characterization as pH probes: fluorescence intensity versus pH; type: physicochemical; settings: for fluorescence intensity under acidic conditions: pH 1-6; for fluorescence intensity under basic conditions: pH 9-12
Description: In addition, the absorption and fluorescence wavelengths of the compound of Formula 97 well match currently available laser lines (488 nm, 532 nm, and 550 nm).
That is, the compound of Formula 111 as a pH probe emitted strong fluorescence at pH 2-6 and the compound of Formula 97 as a pH probe emitted strong fluorescence at pH 8-12.

[6] = test system: mitochondria, HeLa A431 cells; test: Selectivity for mitochondria: co-localization with MitoTracker Green FM in HeLa A431 cells; type: cell-based; settings: dye 0.5 μM
Method: The specific selectivity of the compound of Formula 97 for mitochondria was investigated. To this end, HeLa A431 cells were co-localized with the compound of Formula 97 and a commercially available mitochondrial marker (MTG, 0.2 μM MitoTracker Green FM for mitochondria).
OPM images were acquired at 571-650 nm (Formula 97, λex=552 nm) and 498-540 nm (MTG, λex=488 nm) and are shown in FIGS. 6a and 6b, respectively. FIG. 6c is a merged image of FIGS. 6a and 6b. The Pearson's co-localization coefficient (A) was calculated using the LAS AF software. [MTG]=0.2μM for 30 min incubation,λex=488 nm [Formula 97]=0.5μM for 30 min incubation,λex=552 nm

[7] = Photophysical properties incl. two-photon cross-sections (femtosecond fluorescence measurement technique); type: physicochemical
Method: All measurements were performed in DMSO, ethanol, and PBS buffer. Two-photon cross-sections (δ) were measured using a femtosecond (fs) fluorescence measurement technique.

[8] = test system: HeLa A431 cells; test: Photostability: fluorescence intensity over time in stained HeLa A431 cells; type: cell-based; settings: HeLa A431 cells stained with 1.0 μM dye; for change of fluorescence intensity over time: measured at 2-sec intervals for 3500 sec
Method: The fluorescence intensities of three areas A, B, and C of HeLa A431 cells stained with the compound of Formula 110 (1.0 μM) were measured at 2-sec intervals for 3500 sec.
The fluorescence intensities of four areas A, B, C, and D of HeLa A431 cells stained with the compound of Formula 98 (1.0 μM) were measured at 2-sec intervals for 3500 sec.
The fluorescence intensities of two areas A and B of HeLa A431 cells stained with Cy3B (1.0 μM) were measured at intervals of 2 s for 2000 s.

[9] = test system: mitochondria, Raw 264.7 cells; test: Selectivity for mitochondria: co-localization with MitoTracker Green FM in Raw 264.7 cells; type: cell-based; settings: dye 1 μM
Method: The specific selectivity of the compound of Formula 110 for mitochondria was investigated. To this end, Raw 264.7 cells were co-localized with the compound of Formula 110 and a commercially available mitochondrial marker (MTG, 1 μM MitoTracker Green FM for mitochondria).
OPM images were acquired at 560-600 nm (Formula 110, λex=552 nm) and 470-520 nm (MTG, λex=488 nm) and are shown in FIGS. 4a and 4b, respectively. FIG. 4c is a merged image of FIGS. 4a and 4b. The Pearson's co-localization coefficient (A) was calculated using the LAS AF software. [MTG]=1μM for 30 min incubation,λex=488 nm [Formula 110]=1μM for 30 min incubation,λex=552 nm

[10] = dye-conjugated secondary antibody, plate fluorescence

Q.Y. (quantum yield) [1] | λabs [1] [nm] | ε (molar extinction coefficient) ([2]; Table 1, solvent DMSO) | λem ([2]; Table 1, solvent DMSO) [nm] | fluorescence emission intensity compared with the Alexa Fluor dye [3] | Quantum yield ([2]; Table 6, solvent DMSO) | ε (molar extinction coefficient) ([2]; Table 6, solvent DMSO) | λabs ([2]; Table 6, solvent DMSO) [nm] | λem ([2]; Table 6, solvent DMSO) [nm] | Quantum yield ([2]; Table 6, solvent EtOH) | ε (molar extinction coefficient) ([2]; Table 6, solvent EtOH) | λabs ([2]; Table 6, solvent EtOH) [nm] | λem ([2]; Table 6, solvent EtOH) [nm] | Quantum yield ([2]; Table 6, solvent PBS) | ε (molar extinction coefficient) ([2]; Table 6, solvent PBS) | λabs ([2]; Table 6, solvent PBS) [nm] | λem ([2]; Table 6, solvent PBS) [nm] | pH at which the pH probe emitted strong fluorescence [5] | Compound | D/P ratio at which the dye-secondary antibody was conjugated to the primary antibody with the highest efficiency [4] | bioactivity compared with the Alexa Fluor dye [4, 10] | further results
0.91 | 584 | 66,000 M^−1cm^−1 | 617 | higher than that of Alexa Fluor® 568 |  |  |  |  |  |  |  |  |  |  |  |  |  | CC1(CCCCCC(=O)O)C2=[N+](CCC3Oc4cc(N(CCCS(=O)(=O)O)CCCS(=O)(=O)O)ccc4C=C23)c2ccc(S(=O)(=O)[O-])cc21 (stereo not shown) [Formula 1] | ~4.8 | better bioactivity than Alexa Fluor® 568 | aggregation compared with the Alexa Fluor dye [3]: less aggregated than Alexa Fluor® 568; Fluorescence ([4]; D/P ratio 2.202771): 104.026; Fluorescence ([4]; D/P ratio 4.888795): 127.5422; Fluorescence ([4]; D/P ratio 8.141409): 95.4; Fluorescence ([4]; D/P ratio 11.30465): 91.8519; Fluorescence ([4]; D/P ratio 12.45994): 75.1; brightness values compared with the Alexa Fluor dye [4, 10]: much higher than those of Alexa Fluor® 568
0.87 | 595 | 64,000 M^−1cm^−1 | 624 | higher than that of Alexa Fluor® 594 |  |  |  |  |  |  |  |  |  |  |  |  |  | CC1(CCCCCC(=O)O)C2=[N+](CCC3Oc4cc5c(cc4C=C23)C(CS(=O)(=O)O)CC(C)(C)N5CCCS(=O)(=O)O)c2ccc(S(=O)(=O)[O-])cc21 (stereo not shown) [Formula 3] | ~3.4 | better bioactivity than Alexa Fluor® 594 | Fluorescence ([4]; D/P ratio 2.54): 64.89; Fluorescence ([4]; D/P ratio 3.47): 83.79; Fluorescence ([4]; D/P ratio 4.86): 78.61; Fluorescence ([4]; D/P ratio 5.18): 80.28; Fluorescence ([4]; D/P ratio 5.95): 68.06; brightness values compared with the Alexa Fluor dye ([4]; when the D/P ratio was ≥5): much higher than those of Alexa Fluor® 594
 |  |  |  |  | 0.94 | 35,000 M^−1cm^−1 | 551 | 568 | 0.90 | 47,000 M^−1cm^−1 | 555 | 567 | 0.63 | 14,000 M^−1cm^−1 | 541 | 565 | 8-12 pH | CC1(C)C2=C3C=C4C=CC(=O)C=C4OC3CCN2c2ccccc21 (stereo not shown) [Formula 97] |  |  | fluorescence intensity under acidic conditions [5]: decreased; fluorescence intensity under basic conditions [5]: increased; staining selectivity for mitochondria [6]: mitochondria were predominantly stained; degree of overlapping (A), Pearson's co-localization coefficient with Mitotracker Green FM ([6]; MTG 0.2 μM, 30 min incubation, LAS AF software): 0.74; d: Peak two-photon cross-section ([7]; Buffer (PBS buffer)): 35 10^−50 cm^4s per photon (GM); dΦ: Two-photon action cross-section ([7]; Buffer (PBS buffer)): 22 GM; Φ: Fluorescence quantum yield ([7]; Buffer (PBS buffer)): 0.63; λ^(2)max^abs: Maximum wavelength in two-photon absorption spectrum ([7]; Buffer (PBS buffer)): 920 nm; λmax^fl: Maximum wavelength in single-photon emission spectrum ([7]; Buffer (PBS buffer)): 565 nm; eΦ: Molar extinction coefficient × fluorescence quantum yield ([7]; Buffer (PBS buffer), in M-1cm-1): 8820; Φ: Fluorescence quantum yield ([7]; DMSO): 0.94; λmax^fl: Maximum wavelength in single-photon emission spectrum ([7]; DMSO): 567 nm; dΦ: Two-photon action cross-section ([7]; EtOH): 14 GM; λ^(2)max^abs: Maximum wavelength in two-photon absorption spectrum ([7]; EtOH): 720 nm
 |  |  |  |  | 0.77 | 57,000 M^−1cm^−1 | 570 | 601 | 0.78 | 64,000 M^−1cm^−1 | 570 | 596 | 0.51 | 57,000 M^−1cm^−1 | 565 | 595 |  | CCN(CC)c1ccc2c(c1)OC1CC[N+]3=C(C1=C2)C(C)(C)c1ccccc13 (stereo not shown) [Formula 98] |  |  | photostability [8]: good photostability; change of fluorescence intensity over time [8]: no substantial decreases in fluorescence intensity for 1 h
 |  |  |  |  | 0.86 | 37,000 M^−1cm^−1 | 561 | 597 | 0.80 | 50,000 M^−1cm^−1 | 558 | 584 | 0.78 | 37,000 M^−1cm^−1 | 550 | 579 |  | CNc1ccc2c(c1)OC1CC[N+]3=C(C1=C2)C(C)(C)c1ccccc13 (stereo not shown) [Formula 110] |  |  | photostability [8]: good photostability; change of fluorescence intensity over time [8]: no substantial decreases in fluorescence intensity for 1 h; staining selectivity for mitochondria [9]: mitochondria were predominantly stained; degree of overlapping (A), Pearson's co-localization coefficient with Mitotracker Green FM ([9]; MTG 1 μM, 30 min incubation, LAS AF software): 0.73
 |  |  |  |  |  |  |  |  |  |  |  |  |  |  |  |  | 2-6 pH | CC1(C)C2=[N+](CCC3Oc4cc(N5CCN(CCCCCC(=O)O)CC5)ccc4C=C23)c2ccccc21 (stereo not shown) [Formula 111] |  |  | Quantum yield ([2]; Table 6, solvent PBS (pH 7.4)): 0.53; ε (molar extinction coefficient) ([2]; Table 6, solvent PBS (pH 7.4)): 55,000 M^−1cm^−1; λabs ([2]; Table 6, solvent PBS (pH 7.4)): 530 nm; λem ([2]; Table 6, solvent PBS (pH 7.4)): 585 nm; fluorescence intensity under acidic conditions [5]: increased; fluorescence intensity under basic conditions [5]: decreased
